≈ marks a conversion by molar mass, not a printed value.
How the values were obtained:
Assay type in all cases: functional
Fusarium verticillioides = experiment: Antimicrobial activity against Fusarium verticillioides after 48 hrs by broth microdilution assay
Fusarium solani = experiment: Antimicrobial activity against Fusarium solani after 48 hrs by broth microdilution assay
Fusarium proliferatum = experiment: Antimicrobial activity against Fusarium proliferatum after 48 hrs by broth microdilution assay
Fusarium oxysporum = experiment: Antimicrobial activity against Fusarium oxysporum after 48 hrs by broth microdilution assay
Fusarium subglutinans = experiment: Antimicrobial activity against Fusarium subglutinans after 48 hrs by broth microdilution assay

SMILES	MIC (Fusarium verticillioides) [µg/mL]	MIC (Fusarium solani) [µg/mL]	MIC (Fusarium proliferatum) [µg/mL]	MIC (Fusarium oxysporum) [µg/mL]	MIC (Fusarium subglutinans) [µg/mL]
C[C@@H](c1ncncc1F)[C@](O)(Cn1cncn1)c1ccc(F)cc1F [VORICONAZOLE]	1.74 (≈ 4.98 µM)	9.21 (≈ 26.4 µM)	4.2 (≈ 12 µM)	4 (≈ 11.5 µM)	5.6 (≈ 16 µM)
CCC(C)n1ncn(-c2ccc(N3CCN(c4ccc(OCC5COC(Cn6cncn6)(c6ccc(Cl)cc6Cl)O5)cc4)CC3)cc2)c1=O (stereo not given) [ITRACONAZOLE]	3.33 (≈ 4.72 µM)	> 16	> 16	> 16	10.8 (≈ 15.3 µM)
CC[C@@H]([C@H](C)O)n1ncn(-c2ccc(N3CCN(c4ccc(OC[C@@H]5CO[C@@](Cn6cncn6)(c6ccc(F)cc6F)C5)cc4)CC3)cc2)c1=O [POSACONAZOLE]	0.46 (≈ 0.656 µM)	15.2 (≈ 21.7 µM)	6.4 (≈ 9.13 µM)	2.7 (≈ 3.85 µM)	10.8 (≈ 15.3 µM)
C[C@@H]1[C@H](O)[C@@H](C)/C=C/C=C/C=C/C=C/C=C/C=C/C=C/[C@H](O[C@@H]2O[C@H](C)[C@@H](O)[C@H](N)[C@@H]2O)C[C@@H]2O[C@](O)(C[C@@H](O)C[C@@H](O)[C@H](O)CC[C@@H](O)C[C@@H](O)CC(=O)O[C@H]1C)C[C@H](O)[C@H]2C(=O)O [AMPHOTERICIN B]	1.53 (≈ 1.66 µM)	1.25 (≈ 1.35 µM)	1.7 (≈ 1.84 µM)	2.3 (≈ 2.49 µM)	3.3 (≈ 3.57 µM)

From ChEMBL document CHEMBL1255374, “Species distribution and in vitro antifungal susceptibility patterns of 75 clinical isolates of Fusarium spp. from northern Italy” (2008)
